Measured values from patent US11753407B2, “Compounds for treating spinal muscular atrophy” (PTC Therapeutics, Inc., priority 2012, dated 2023).

How the values were obtained:
[1] = tested on: Smn protein in SMA patient fibroblast cells (GM03813); assay: Smn protein assay in cultured cells (SMN HTRF); type: cell-based, human; conditions: SMA patient fibroblast cells, 48 hours; for EC1.5x for Smn protein expression: 7-point concentration curve, SMN HTRF, concentration producing 1.5 times Smn protein vs DMSO vehicle control; for maximum fold (Fold) increase of Smn protein: 7-point concentration data, fold relative to vehicle control
In short: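 SMA patient fibroblasts (5,000 cells/well, DMEM-10% FBS) were treated for 48 h at 37 °C with a 7-point, 3.16-fold dilution series in triplicate. RIPA lysates were probed by HTRF (anti-SMN d2/kryptate, overnight, room temperature), reading 665/620 nm. EC1.5× is the concentration giving 1.5-fold Smn over DMSO vehicle.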

[2] = tested on: SMN2 minigene mRNA (SMN2-A minigene) in HEK293H cells; assay: SMN2 minigene mRNA splicing RT-qPCR assay in cultured cells; type: cell-based, human; conditions: Homo sapiens, HEK293-H; concentration increasing full length SMN2 mRNA 1.5-fold relative to vehicle-treated cells; HEK293H cells with SMN2-A minigene, 24 hours, 7-point concentration data; read-out: EC1.5x for production of full length SMN2 mRNA
In short: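 HEK293H cells stably carrying the SMN2-A minigene were treated for 24 h at 37 °C with a 7-point, 3.16-fold dilution series of compound. Multiplex RT-qPCR measured exon 7-containing minigene FL mRNA against GAPDH, expressed relative to vehicle by modified ΔΔCt; the EC1.5× is the concentration giving a 1.5-fold increase.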

Row | Compound | EC1.5x for Smn protein expression [1] | maximum fold (Fold) increase of Smn protein [1] | EC (1.5-fold increase) [2]
1 | Cc1cn2cc(-c3cc(=O)n4cc(C5CCN(CCO)CC5)ccc4n3)cc(C)c2n1 [Compound 617, 2-(2,8-dimethylimidazo[1,2-a]pyridin-6-yl)-7-[1-(2-hydroxyethyl)piperidin-4-yl]-4H-pyrido[1,2-a]pyrimidin-4-one] | **** (an EC1.5x≤0.3 μM is indicated by four stars (****)) | ***** (a fold increase >1.65 is indicated by five stars (*****)) | < 0.1 µM
2 | CCc1cc(-c2cc(=O)n3cc(N4CCN(C5CCC5)[C@@H](C)C4)ccc3n2)cn2cc(C)nc12 [Compound 652, 7-[(3S)-4-cyclobutyl-3-methylpiperazin-1-yl]-2-(8-ethyl-2-methylimidazo[1,2-a]pyridin-6-yl)-4H-pyrido[1,2-a]pyrimidin-4-one] | **** (an EC1.5x≤0.3 μM is indicated by four stars (****)) | ***** (a fold increase >1.65 is indicated by five stars (*****)) | < 0.1 µM
3 | CCc1nc(C)cn2nc(-c3cc(=O)n4cc(C5CCNCC5)ncc4n3)cc12 [Compound 653, 2-(4-ethyl-6-methylpyrazolo[1,5-a]pyrazin-2-yl)-7-(piperidin-4-yl)-4H-pyrazino[1,2-a]pyrimidin-4-one] | **** (an EC1.5x≤0.3 μM is indicated by four stars (****)) | ***** (a fold increase >1.65 is indicated by five stars (*****)) | < 0.1 µM
4 | Cc1cn2nc(-c3cc(=O)n4cc(N5CCN(CCOCCO)[C@H](C)C5)cc(C)c4n3)cc2c(C)n1 [Compound 670, 2-(4,6-dimethylpyrazolo[1,5-a]pyrazin-2-yl)-7-{(3R)-4-[2-(2-hydroxyethoxy)ethyl]-3-methylpiperazin-1-yl}-9-methyl-4H-pyrido[1,2-a]pyrimidin-4-one] | **** (an EC1.5x≤0.3 μM is indicated by four stars (****)) | ***** (a fold increase >1.65 is indicated by five stars (*****)) | < 0.1 µM
5 | Cc1cn2nc(-c3cc(=O)n4cc(C5CCN(C)CC5)cc(C)c4n3)cc2c(C)n1 [Compound 672, 2-(4,6-dimethylpyrazolo[1,5-a]pyrazin-2-yl)-9-methyl-7-(1-methylpiperidin-4-yl)-4H-pyrido[1,2-a]pyrimidin-4-one] | **** (an EC1.5x≤0.3 μM is indicated by four stars (****)) | ***** (a fold increase >1.65 is indicated by five stars (*****)) | < 0.1 µM
6 | CCc1cc(-c2cc(=O)n3cc(N4C[C@@H](C)N[C@@H](C)C4)ccc3n2)cn2cc(C)nc12 [Compound 675, 7-[(3R,5S)-3,5-dimethylpiperazin-1-yl]-2-(8-ethyl-2-methylimidazo[1,2-a]pyridin-6-yl)-4H-pyrido[1,2-a]pyrimidin-4-one] | **** (an EC1.5x≤0.3 μM is indicated by four stars (****)) | ***** (a fold increase >1.65 is indicated by five stars (*****)) | < 0.1 µM
7 | CCc1cc(-c2cc(=O)n3cc(N4CCCN(C)CC4)ccc3n2)cn2cc(C)nc12 [Compound 676, 2-(8-ethyl-2-methylimidazo[1,2-a]pyridin-6-yl)-7-(4-methyl-1,4-diazepan-1-yl)-4H-pyrido[1,2-a]pyrimidin-4-one] | *** (an EC1.5× between >0.3 μM and ≤1 μM is indicated by three stars (***)) | ***** (a fold increase >1.65 is indicated by five stars (*****)) | < 0.1 µM
8 | CCN1CCC(c2cc(C)c3nc(-c4cc5c(C)nc(C)cn5n4)cc(=O)n3c2)CC1 [Compound 702, 2-(4,6-dimethylpyrazolo[1,5-a]pyrazin-2-yl)-7-(1-ethylpiperidin-4-yl)-9-methyl-4H-pyrido[1,2-a]pyrimidin-4-one] | **** (an EC1.5x≤0.3 μM is indicated by four stars (****)) | ***** (a fold increase >1.65 is indicated by five stars (*****)) | < 0.1 µM
9 | Cc1cn2cc(-c3cc(=O)n4cc(N5CCN[C@H](C)C5)ccc4n3)cc2c(C)n1 [Compound 713, 2-(1,3-dimethylpyrrolo[1,2-a]pyrazin-7-yl)-7-[(3R)-3-methylpiperazin-1-yl]-4H-pyrido[1,2-a]pyrimidin-4-one] | **** (an EC1.5x≤0.3 μM is indicated by four stars (****)) | ***** (a fold increase >1.65 is indicated by five stars (*****)) | < 0.1 µM
10 | Cc1cn2nc(-c3cc(=O)n4cc(CCCN)ccc4n3)cc2c(C)n1 [Compound 742, 7-(3-aminopropyl)-2-(4,6-dimethylpyrazolo[1,5-a]pyrazin-2-yl)-4H-pyrido[1,2-a]pyrimidin-4-one] | *** (an EC1.5× between >0.3 μM and ≤1 μM is indicated by three stars (***)) | ***** (a fold increase >1.65 is indicated by five stars (*****)) | 0.1 to 0.3 µM
11 | Cc1cc(N2CCN[C@H](C)C2)cn2c(=O)cc(-c3ccc4nn(C)cc4c3)nc12 [Compound 755, 9-methyl-2-(2-methyl-2H-indazol-5-yl)-7-[(3R)-3-methylpiperazin-1-yl]-4H-pyrido[1,2-a]pyrimidin-4-one] | **** (an EC1.5x≤0.3 μM is indicated by four stars (****)) | ***** (a fold increase >1.65 is indicated by five stars (*****)) | < 0.1 µM
12 | Cc1cc(N2CCN[C@@H](C)C2)cn2c(=O)cc(-c3ccc4nn(C)cc4c3)nc12 [Compound 756, 9-methyl-2-(2-methyl-2H-indazol-5-yl)-7-[(3S)-3-methylpiperazin-1-yl]-4H-pyrido[1,2-a]pyrimidin-4-one] | **** (an EC1.5x≤0.3 μM is indicated by four stars (****)) | ***** (a fold increase >1.65 is indicated by five stars (*****)) | < 0.1 µM
13 | CCc1nc(C)cn2nc(-c3cc(=O)n4cc(C5=CCNCC5)cc(C)c4n3)cc12 [Compound 773, 2-(4-ethyl-6-methylpyrazolo[1,5-a]pyrazin-2-yl)-9-methyl-7-(1,2,3,6-tetrahydropyridin-4-yl)-4H-pyrido[1,2-a]pyrimidin-4-one] | **** (an EC1.5x≤0.3 μM is indicated by four stars (****)) | ***** (a fold increase >1.65 is indicated by five stars (*****)) | < 0.1 µM
14 | CCc1nc(C)cn2nc(-c3cc(=O)n4cc(C5CCN(C)CC5)cc(C)c4n3)cc12 [Compound 774, 2-(4-ethyl-6-methylpyrazolo[1,5-a]pyrazin-2-yl)-9-methyl-7-(1-methylpiperidin-4-yl)-4H-pyrido[1,2-a]pyrimidin-4-one] | **** (an EC1.5x≤0.3 μM is indicated by four stars (****)) | ***** (a fold increase >1.65 is indicated by five stars (*****)) | < 0.1 µM
15 | CCNC[C@@H]1CCN(c2ccc3nc(-c4cc5c(C)nc(C)cn5n4)cc(=O)n3c2)C1 [Compound 779, 2-(4,6-dimethylpyrazolo[1,5-a]pyrazin-2-yl)-7-{(3S)-3-[(ethylamino)methyl]pyrrolidin-1-yl}-4H-pyrido[1,2-a]pyrimidin-4-one] | **** (an EC1.5x≤0.3 μM is indicated by four stars (****)) | ***** (a fold increase >1.65 is indicated by five stars (*****)) | < 0.1 µM
16 | CCc1nc(C)cn2nc(-c3cc(=O)n4cc(C5CCN(CC)CC5)cc(C)c4n3)cc12 [Compound 790, 2-(4-ethyl-6-methylpyrazolo[1,5-a]pyrazin-2-yl)-7-(1-ethylpiperidin-4-yl)-9-methyl-4H-pyrido[1,2-a]pyrimidin-4-one] | **** (an EC1.5x≤0.3 μM is indicated by four stars (****)) | ***** (a fold increase >1.65 is indicated by five stars (*****)) | < 0.1 µM
17 | Cc1cn2cc(-c3cc(=O)n4cc(N5CCN(CCO)CC5)ccc4n3)cc(F)c2n1 [Compound 801, 2-(8-fluoro-2-methylimidazo[1,2-a]pyridin-6-yl)-7-[4-(2-hydroxyethyl)piperazin-1-yl]-4H-pyrido[1,2-a]pyrimidin-4-one] | *** (an EC1.5× between >0.3 μM and ≤1 μM is indicated by three stars (***)) | ***** (a fold increase >1.65 is indicated by five stars (*****)) | 0.1 to 0.3 µM
